Test results taken from article PMC6359144 (International Journal of Molecular Sciences, 2019).
Like-named read-outs stand apart in the source and are kept apart here.

Key:
518A2 melanoma cells [1] = experiment: MTT assay, 518A2 melanoma cells; assay type: cell-based, human; conditions: for IC50: Homo sapiens, MTT, mean ± SD of four experiments; for effect on viability of 518A2 melanoma cells: concentrations as high as 50 µM; for IC50 after 72 h compared with IC50 after 24 h: 518A2 melanoma cells, fold lower
Experimental: (§1) HT-29 (ACC-299), HCT-116 (ACC-581) and DLD-1 (ACC-278) colon carcinoma, MCF-7 (ACC-115) breast carcinoma, KB-V1 (ACC-149), 518A2 (Department of Radiotherapy and Radiobiology, University Hospital Vienna) melanoma and Ea.Hy926 (ATCC no. CRL-2922) HUVEC derived endothelial hybrid cells line were grown in Dulbecco’s Modified Eagle Medium (DMEM; Biochrom), high glucose supplemented with 10% (v/v) fetal bovine serum (FBS; Biochrom.) and 1% (v/v) Antibiotic-Antimycotic solution (anti-anti; Thermo Scientific). HDFa human dermal fibroblasts (ATCC: PCS-201-012™) were grown in DMEM supplemented with 10% FBS, 1% anti-anti and 2 mM glutamine. The cells were incubated at 37 °C, 5% CO2, 95% humidified atmosphere. By repeated addition of topotecan or vinblastine at the maximum tolerated dose to the cell medium of MCF-7 and KB-V1 cells, the cells were rendered multidrug-resistant, indicated as MCF-7^Topo and KB-V1^Vbl, respectively. They were serially passaged following trypsinization by using 0.05% trypsin/0.02% EDTA (Biochrom). Mycoplasma contamination was routinely monitored, and only mycoplasma–free cultures were used.
(§2) MTT [3-(4,5-dimethylthiazol-2-yl)-2,5-diphenyltetrazolium bromide] (ABCR) was used to determine the cytotoxicity of test compounds as previously described. Briefly, HDFa human dermal fibroblasts and Ea.Hy926 endothelial hybrid cells (both 1 × 10^5 cells/mL, 100 µL/well), 518A2 melanoma, KB-V1^Vbl cervix carcinoma, MCF-7^Topo breast carcinoma, HT-29, DLD-1 and HCT-116 colon carcinoma (all 5 × 10^4 cells/mL, 100 µL/well) were grown in 96-well culture plates for 24 h. Then, various concentrations of the test compounds were added and the cells were incubated for 24-72 h at 37 °C. After adding 12.5 µL of a 0.5% MTT solution in PBS (final concentration 0.05%) to cell medium, microplates were incubated for 2 h and subsequently swiftly turned to discard the medium. The precipitate of formazan crystals was then dissolved in a 10% solution of SDS in DMSO containing 0.6% acetic acid. To ensure complete dissolution of formazan, microplates were incubated for at least 4 h at 37 °C. Finally, the absorbance at λ = 570 nm (formazan) and 630 nm (background) was measured using a microplate reader (Tecan F200). All experiments were carried out in quadruplicate and the percentage of viable cells was calculated as the mean ± SD with controls set to 100%. Selected graphs of MTT assays can be found in the Supporting Information (Figure S8).

[2] = test system: HT-29 colon carcinoma cells; experiment: MTT assay, HT-29 colon carcinoma cells; assay type: cell-based, human; conditions: for IC50: Homo sapiens, MTT; for effect on viability of HT-29 colon carcinoma cells: concentrations as high as 50 µM
Experimental: as §1, §2

[3] = test system: DLD-1 colon carcinoma cells; experiment: MTT assay, DLD-1 colon carcinoma cells; assay type: cell-based; conditions: Homo sapiens, DLD-1, read-out: IC50 DLD-1 (72 h)
Experimental: as §1, §2

[4] = test system: MCF-7^Topo breast adenocarcinoma cells; experiment: MTT assay, MCF-7^Topo breast carcinoma cells; assay type: cell-based; conditions: Homo sapiens, MCF7/Topo, read-out: IC50 MCF-7^Topo (72 h)
Experimental: as §1, §2

[5] = test system: HCT-116 colon carcinoma cells; experiment: MTT assay, HCT-116 colon carcinoma cells; assay type: cell-based; conditions: Homo sapiens, HCT-116, read-out: IC50 HCT-116 (72 h)
Experimental: as §1, §2

[6] = test system: KB-V1^Vbl cervix carcinoma cells; experiment: MTT assay, KB-V1^Vbl cervix carcinoma cells; assay type: cell-based; conditions: Homo sapiens, read-out: IC50 KB-V1^Vbl (72 h)
Experimental: as §1, §2

[7] = test system: Ea.Hy926 endothelial hybrid cells; experiment: MTT assay, Ea.Hy926 endothelial hybrid cells; assay type: cell-based; conditions: Homo sapiens, EA.hy 926, read-out: IC50 Ea.Hy926 (72 h)
Experimental: as §1, §2

[8] = test system: MCF-7^Topo breast adenocarcinoma cells; parameters: method as in earlier work; conditions: read-out: IC50 MCF-7^Topo (72 h), MTT, and 34; cited from earlier work
[9] = test system: HCT-116 colon carcinoma cells; parameters: method as in earlier work; conditions: read-out: IC50 HCT-116 (72 h), MTT, and 34; cited from earlier work
[10] = biological target: T1, purified pig brain tubulin (Sus scrofa, UniProt P02550+P02554); experiment: Turbidimetric cell-free tubulin polymerization assay; assay type: biochemical; conditions: 10 µM, 340 nm
T1 construct: using purified pig brain tubulin; from tissue; host or cells: pig brain
Experimental: An amount of 50 µL of Brinkley’s buffer 80 (BRB80) supplemented with 20% glycerol and 3 mM GTP was given in a black 96-well half-area plate with clear bottom. Then, test compounds 4d–f (final concentration: 5 µM, or 10 µM) or vehicle (DMSO) were added. After adding 50 µL tubulin in BRB80 (10 mg/mL) was pipetted in the wells and immediately placed in a pre-heated microplate reader (Tecan). The polymerization was determined turbidimetrically at 37 °C by measuring the absorption at 340 nm for 120 min in intervals of 5 min. Values were normally distributed for each group (Shapiro–Wilk test, p > 0.05) and there was homogeneity of variance (Levene’s test, p > 0.05).

[11] = test system: Ea.Hy926 endothelial hybrid cells; parameters: method as in earlier work; conditions: read-out: IC50 Ea.Hy926 (72 h), MTT, and 34; cited from earlier work
[12] = test system: HT-29 colon carcinoma cells; parameters: method as in earlier work; conditions: read-out: IC50 HT-29 (72 h), MTT, and 34; cited from earlier work
518A2 melanoma cells [13] = test system: 518A2 melanoma cells; parameters: method as in earlier work; conditions: read-out: IC50 518A2 (72 h), MTT, and 34; cited from earlier work
[14] = 518A2, read-out: IC50 518A2 (72 h), 72 h
[15] = 518A2, 24 h, read-out: IC50 518A2 (24 h)
[16] = HT-29, read-out: IC50 HT-29 (72 h), 72 h
[17] = HT-29, 24 h, read-out: IC50 HT-29 (24 h)

T1 sequence (P02554 whole entry): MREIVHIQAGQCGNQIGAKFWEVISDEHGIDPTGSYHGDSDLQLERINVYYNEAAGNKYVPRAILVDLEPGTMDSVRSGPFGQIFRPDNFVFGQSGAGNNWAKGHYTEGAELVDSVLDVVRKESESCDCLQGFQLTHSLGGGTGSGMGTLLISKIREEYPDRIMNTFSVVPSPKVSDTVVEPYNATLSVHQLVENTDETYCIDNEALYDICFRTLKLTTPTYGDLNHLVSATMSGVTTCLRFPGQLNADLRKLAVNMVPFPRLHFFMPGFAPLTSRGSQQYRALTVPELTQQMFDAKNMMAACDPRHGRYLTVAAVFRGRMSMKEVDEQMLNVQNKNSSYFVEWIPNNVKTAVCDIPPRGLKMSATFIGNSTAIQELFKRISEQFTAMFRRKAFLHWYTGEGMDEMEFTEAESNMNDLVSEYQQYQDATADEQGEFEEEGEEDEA
T1 sequence (P02550 whole entry): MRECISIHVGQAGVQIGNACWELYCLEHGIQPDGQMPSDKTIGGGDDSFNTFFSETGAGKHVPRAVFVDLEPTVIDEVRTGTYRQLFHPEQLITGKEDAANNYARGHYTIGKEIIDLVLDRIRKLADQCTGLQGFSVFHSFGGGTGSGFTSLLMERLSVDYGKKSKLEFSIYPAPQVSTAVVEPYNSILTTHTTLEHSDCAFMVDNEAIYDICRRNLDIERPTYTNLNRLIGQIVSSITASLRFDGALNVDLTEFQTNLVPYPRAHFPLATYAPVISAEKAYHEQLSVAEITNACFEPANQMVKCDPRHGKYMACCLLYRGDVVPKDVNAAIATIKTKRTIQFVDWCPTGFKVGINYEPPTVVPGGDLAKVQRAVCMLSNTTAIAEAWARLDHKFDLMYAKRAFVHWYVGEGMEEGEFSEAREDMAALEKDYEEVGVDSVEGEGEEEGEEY

Compound | IC50 (518A2 melanoma cells [1]; [14]) | IC50 (518A2 melanoma cells [1]; [15]) | IC50 [2, 16] | IC50 [2, 17] | IC50 after 72 h compared with IC50 after 24 h (518A2 melanoma cells [1]) | IC50 [3] | melting point | IC50 [4] | IC50 [5] | IC50 [6] | effect on viability of 518A2 melanoma cells (518A2 melanoma cells [1]) | effect on viability of HT-29 colon carcinoma cells [2] | IC50 [7] | IC50 [8] | IC50 [9] | inhibition of tubulin polymerization [10] | IC50 [11] | IC50 [12] | IC50 (518A2 melanoma cells [13])
CCOC(=O)CCCOc1cc(-c2ocnc2-c2cc(OC)c(OC)c(OC)c2)ccc1OC [3g, Ethyl 4-[1-methoxy-4-(4’-(3’’,4’’,5’’-trimethoxyphenyl)oxazol-5’-yl)-2-phenoxy]butyrate] | > 50 µM | > 100 µM | > 50 µM | > 100 µM |  |  |  |  |  |  | did not affect the viability | did not affect the viability |  |  |  |  |  |  | 
COc1ccc(-c2ocnc2-c2cc(Cl)c(OC)c(OC)c2)cc1OCCCCCC(=O)NO [4c, N-Hydroxy-6-[1-methoxy-4-(4’-(3’’-chloro-4’’,5’’-dimethoxyphenyl)oxazol-5’-yl)-2-phenoxy]hexanamide] | 2.2 ± 0.3 µM | 9.4 ± 1.4 µM | 4.9 ± 0.3 µM | 4.6 ± 0.3 µM |  | 3.3 ± 0.5 µM | 189 °C | 6.1 ± 0.7 µM | 6.5 ± 0.3 µM | 18.4 ± 3.4 µM |  |  | 7.5 ± 0.5 µM |  |  |  |  |  | 
COc1ccc(-c2ocnc2-c2cc(OC)c(OC)c(OC)c2)cc1OCCCCC(=O)NO [4h, N-Hydroxy-5-[1-methoxy-4-(4’-(3’’,4’’,5’’-trimethoxyphenyl)oxazol-5’-yl)-2-phenoxy]pentanamide] | 5.6 ± 0.6 µM | 21.6 ± 3.9 µM | 6.6 ± 0.6 µM | 53.9 ± 12 µM |  | 5.8 ± 0.4 µM | 118 to 120 °C | 39.6 ± 5.9 µM | 3.4 ± 0.4 µM | 11.1 ± 1.6 µM |  |  | 3.4 ± 0.2 µM |  |  |  |  |  | 
COc1ccc(-c2ocnc2-c2cc(OC)c(OC)c(OC)c2)cc1OCCCCCC(=O)NO [4i, N-Hydroxy-6-[1-methoxy-4-(4’-(3’’,4’’,5’’-trimethoxyphenyl)oxazol-5’-yl)-2-phenoxy]hexanamide] | 3.3 ± 0.3 µM | 6.9 ± 2.5 µM | 1.7 ± 0.1 µM | 47.6 ± 10.6 µM |  | 1.3 ± 0.1 µM |  | 15.8 ± 1.4 µM | 0.61 ± 0.07 µM | 9 ± 0.3 µM |  |  | 1.7 ± 0.1 µM |  |  |  |  |  | 
COc1ccc(-c2ocnc2-c2cc(OC)c(OC)c(OC)c2)cc1OCCCC(=O)O [4j, 4-[1-Methoxy-4-(4’-(3’’,4’’,5’’-trimethoxyphenyl)oxazol-5’-yl)-2-phenoxy]butyric acid] | > 50 µM | > 100 µM | > 100 µM | > 100 µM |  |  |  |  |  |  | did not affect the viability | did not affect the viability |  |  |  |  |  |  | 
COc1ccc(/C=C\c2cc(OC)c(OC)c(OC)c2)cc1O [CA-4, Combretastatin A-4] |  |  |  |  |  |  |  |  |  |  |  |  |  | 0.5 ± 0.2 µM | 0.0026 ± 0.0002 µM | significant inhibition of tubulin polymerization | 0.011 ± 0.002 µM | 3.6 ± 0.1 µM | 0.018 ± 0.007 µM

Now from value to compound, other results behind:

IC50 (518A2 melanoma cells [1]; [14]) | IC50 (518A2 melanoma cells [1]; [15]) | IC50 [2, 16] | IC50 [2, 17] | IC50 after 72 h compared with IC50 after 24 h (518A2 melanoma cells [1]) | IC50 [3] | melting point | IC50 [4] | IC50 [5] | IC50 [6] | Compound | effect on viability of 518A2 melanoma cells (518A2 melanoma cells [1]) | effect on viability of HT-29 colon carcinoma cells [2] | IC50 [7] | IC50 [8] | IC50 [9] | inhibition of tubulin polymerization [10] | IC50 [11] | IC50 [12] | IC50 (518A2 melanoma cells [13])
0.11 ± 0.01 µM | 1.3 ± 0.4 µM | 2.9 ± 0.3 µM | 2.5 ± 0.4 µM | about eight-fold | 0.34 ± 0.01 µM | 171 to 172 °C | 0.66 ± 0.14 µM | 0.21 ± 0.01 µM | 0.15 ± 0.02 µM | COc1ccc(-c2ocnc2-c2cc(Cl)c(OC)c(OC)c2)cc1OCCCC(=O)NO [4a, N-Hydroxy-4-[1-methoxy-4-(4’-(3’’-chloro-4’’,5’’-dimethoxyphenyl)oxazol-5’-yl)-2-phenoxy]butanamide] |  |  | 0.0012 ± 0.0006 µM |  |  |  |  |  | 
1 ± 0.1 µM | 10.4 ± 5.1 µM | 3.6 ± 0.1 µM | 4.2 ± 0.2 µM |  | 3.2 ± 0.1 µM | 202 °C | 2.9 ± 0.8 µM | 2.4 ± 0.1 µM | 4 ± 0.2 µM | COc1ccc(-c2ocnc2-c2cc(Cl)c(OC)c(OC)c2)cc1OCCCCC(=O)NO [4b, N-Hydroxy-5-[1-methoxy-4-(4’-(3’’-chloro-4’’,5’’-dimethoxyphenyl)oxazol-5’-yl)-2-phenoxy]pentanamide] |  |  | 0.57 ± 0.07 µM |  |  |  |  |  | 
0.64 ± 0.07 µM | 4.4 ± 0.1 µM | 2.8 ± 0.2 µM | 5 ± 0.2 µM | about eight-fold | 0.92 ± 0.04 µM |  | 9.3 ± 0.8 µM | 0.92 ± 0.12 µM | 2.7 ± 0.2 µM | COc1ccc(-c2ocnc2-c2cc(OC)c(OC)c(OC)c2)cc1OCCCC(=O)NO [4g, N-Hydroxy-4-[1-methoxy-4-(4’-(3’’,4’’,5’’-trimethoxyphenyl)oxazol-5’-yl)-2-phenoxy]butanamide] |  |  | 0.41 ± 0.04 µM |  |  |  |  |  | 
